Results from US20250235418A1, “Butyrate Analogues and Methods of Use for HIF Stabilization and Treatment of Bowel Disease” (THE REGENTS OF THE UNIVERSITY OF COLORADO, A BODY CORPORATE, priority 2022, published 2025).
Entries after “also recorded” stand apart in the source; their conditions may differ. Where two headings read alike, the source gives them in different places.

How the values were obtained:
[1] = target: T1, PHD2181-402 (Homo sapiens, UniProt Q9GZT9); experiment: bioluminescent succinate detection assay of recombinant PHD2181-402 activity/inhibition; assay type: biochemical; conditions: for fold less effective at inhibiting PHD2181-402 than butyrate: compared with butyrate
T1 construct: made in house
T1 sequence (Q9GZT9 181-402): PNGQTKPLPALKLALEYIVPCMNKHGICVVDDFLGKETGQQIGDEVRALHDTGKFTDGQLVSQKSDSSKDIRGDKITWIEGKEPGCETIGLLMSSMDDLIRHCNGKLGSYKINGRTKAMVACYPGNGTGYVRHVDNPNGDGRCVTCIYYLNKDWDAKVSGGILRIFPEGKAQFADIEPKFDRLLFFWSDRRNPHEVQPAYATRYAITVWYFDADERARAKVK
From the text: To pinpoint if butyrate inhibits PHDs directly, we expressed recombinant PHD derived from the human PHD2 sequence. There are three human PHDs: PHD1, PHD2, and PHD3, with PHD2 being the most abundant and expressed in the majority of tissues, the most important regulator of HIF, particularly HIF-1α, and the only PHD that is embryonically lethal when deleted. PHD1 is exclusively localized to the nucleus, whereas PHD2 is mainly cytoplasmic, and PHD3 is both. […] Sequence comparisons and modeling studies indicate that the PHD2 active site is highly conserved among the PHDs.
IC50s depend on exact experimental conditions, making direct comparisons and global applications difficult.

[2] = tested on: PHDs; conditions: range across studies, assay conditions vary; read-out: reported IC50s; cited from earlier work
[3] = tested on: PHD (2-OG accumulation) in T84 IECs; experiment: 2-OG levels in T84 cells as biomarker of PHD inhibition; assay type: cell-based; conditions: 3 h, 10 mM butyrate, 30 μM IOX2
Description: (B) 2-OG concentrations in T84 cells treated with 10 mM butyrate with or without 1 mM MCPA or 30 μM IOX2 for 3 h
The relationship between butyrate and HIF, were examined whether butyrate influences PHD activity by monitoring 2-OG levels. […] In this, we considered such 2-OG accumulation as a metabolic biomarker of PHD inhibition (FIG. 3A).

[4] = tested on: HIF-1α / PHDs in murine colon tissue; experiment: rectal gavage of butyrate or IOX2 in antibiotic SCFA-depleted mice; assay type: in vivo; conditions: 1 h, 100 mM butyrate, 1.5 mM IOX2
[5] = tested on: HIF1α in T84 cells; experiment: HIF1α immunoblot in T84 cells (MBA vs BA); assay type: cell-based; conditions: for HIF1α stabilization over time (immunoblot): 5 mM BA and MBA, IOX4 positive control
Description: (A) Structures of butyrate derivatives investigated in initial screen for HIF stabilization. Immunoblot of HIF1a protein levels in Caco-2 cells (B) and T84 cells (C) exposed to veh (HBSS+), […], or 5 mM butyrate derivatives for 6h. (D) Dose response study of HIF1a accumulation in T84 cells treated with decreasing concentrations of MBA and BA for 6 h.
(A) Immunoblots of HIF1a protein over time after exposure of T84 cells to 5 mM BA and MBA. (B) Mesoscale assay of HIF1a protein over time in caco-2 cells treated with 5 mM MBA compared to veh. (C) HIF1a and HIF target (BNIP3) protein in caco-2 cells exposed to veh (HBSS+), […] or 5 mM MBA. Data are presented as mean+S.E.M, *p<0.05, **p<0.01, ***p<0.001.
(§1) Endogenous and non-endogenous butyrate derivatives with specifically chosen functional groups at different positions within the small molecule and assess their effects on HIF stabilization (FIG. 21A). To study a small library of butyrate derivatives we employed an electrochemiluminescence based assay to quantify HIF1α levels using the Meso Scale Discovery (HIF1α MSD assay, http://www.mesoscale.com) technology. Similar to the sandwich enzyme-linked immunosorbent assay (ELISA), this technology captures and detects HIF1α protein using two specific antibodies but utilizes electrochemiluminescence-based signal generation and detection. Using lysates from intestinal epithelial cells (IECs) caco-2 and T84 exposed to a physiological relevant concentration of 5 mM butyrate derivatives for 4h, this assay was employed to determine HIF1α protein concentration. A bona-fide and potent PHD2 inhibitor (IOX4) was used to stabilize HIF1α as a positive control. Various butyrate derivatives increased HIF1α relative concentration in both cell lines compared to low signals detected in untreated lysates. […] We decided to focus on this interesting butyrate derivative for further studies.
(§2) To elucidate the effectiveness of MBA to stabilize HIF1α over time and possibly shine light on how quickly it can be metabolized in-vitro, time-course studies where performed between BA and MBA, IOX4 was used as a positive control. […] Employing the HIF1α MSD assay, we screened for various timepoints in caco-2 cell lysates exposed to MBA (5 mM). […] BNIP3 is involved in cell survival and is a known HIF1α target that is induced through chemical stabilization of HIF or hypoxia. BNIP3 promoter comprises a functional hypoxia response element (HRE) and can be activated by HIF1α.[5] Parallel to our HIF stabilization time course studies, we wanted to assess the transcriptional activity of the stabilized protein over time.

[6] = tested on: HIF1α in caco-2 cells; experiment: HIF1α MSD assay and immunoblot in caco-2 cells; assay type: cell-based; conditions: for BNIP3 immunoblot over time: c2bbe cell lysates, various timepoints
Description: (A) Structures of butyrate derivatives investigated in initial screen for HIF stabilization. […] (D) Dose response study of HIF1a accumulation in T84 cells treated with decreasing concentrations of MBA and BA for 6 h.
(A) Immunoblots of HIF1a protein over time after exposure of T84 cells to 5 mM BA and MBA. (B) Mesoscale assay of HIF1a protein over time in caco-2 cells treated with 5 mM MBA compared to veh. […] Data are presented as mean+S.E.M, *p<0.05, **p<0.01, ***p<0.001.
HIF1a Mesoscale assay of BA derivatives investigated in caco-2 (A) and T84 (B) intestinal epithelial cells (5 mM, 6 h), identifying MBA as a promising candidate in HIF1a stabilization (Veh=HBSS+).
as §1, §2

[7] = tested on: HIF target genes in T84 cells; experiment: real-time PCR of HIF target genes BNIP3 and CAIX in T84 cells; assay type: cell-based; conditions: 16h
Description: (A) Exposure of T84 cells to Veh, BA or MBA (5 mM, 16 h) induced HIF target gene expression of CAIX and BNIP3. […] (C) Non-targeting control and T84 HIF1b depleted cells were analyzed for HIF1b expression by western blotting, shown with a representative blot. Quantification of HIF1b decrease was performed using ACTB-normalized densitometry. qPCR data was analyzed by One-way ANOVA with Bonferroni for post hoc correction and presented as mean±S.E.M, **p<0.01, ***p<0.001, ****p<0.0001 of three independent experiments.
Following these findings, we then explored if the MBA-induced stabilization of HIF was reflected in the transcriptional regulation of target genes. We utilized real-time PCR to study the influence of MBA mediated HIF stabilization in the induction of established HIF targets, BNIP3 (cell survival) and CAIX (pH regulation).
Furthermore, to confirm MBA-induced HIF transcriptional activity, we quantified the induction of BNIP3 and CAIX by BA or MBA (5 mM, 16h) in lentiviral shRNA-mediated knockdown of HIF1β relative to non-targeting shRNA controls. […] These findings confirm that through MBA exposure, HIF is stabilized and it is transcriptionally active.

[8] = tested on: HIF regulated targets; experiment: intraperitoneal injection in C57BL/6 mice, HIF regulated targets (EPO, GLUT1); assay type: in vivo; conditions: MBA 80 mg/kg, 24h
Description: Erythropoietin (EPO) is regulated by HIF stabilization. (A) EPO protein in blood serum was assessed by mesoscale assay (n=6-8). qPCR mRNA expression of HIF target mGLUT1 in kidney (B) and colon tissue (C) (n=3-8). Data analyzed by One-way ANOVA with Tukey for post hoc correction and presented as mean±S.E.M of two independent experiments, *p<0.05, **p<0.01, ***p<0.001, ****p<0.0001 […]
At 24 h, mice were sacrificed followed by exsanguination, extraction of right kidney and distal colon for analysis of HIF stabilization and HIF target gene expression. SHBA induces HIF regulated targets in vivo. Erythropoietin (EPO) is regulated by HIF stabilization. (A) EPO protein in blood serum was assessed by mesoscale assay (n=6-8). (B) qPCR mRNA expression of HIF target mGLUT1 in colon tissue (n=3-4). Data are presented as mean±S.E.M of two independent experiments, *p<0.05, **p<0.01.
A typical physiologic response to hypoxia is the increase in red blood cell production. Naturally, HIF is in charge of this response by regulating cell-type specific gene expression that leads to increased levels of the hormone erythropoietin (EPO).[10] […] We lastly explored the in-vivo effects of MBA in mediating induction of genes tightly regulated by HIF. […] After 24h of treatment, they were sacrificed and quickly exsanguinated to measure EPO levels in serum. […] Furthermore, we studied the induction of GLUT1, another classic HIF target responsible for the transport of various monosaccharides. Kidney and colon tissue were analyzed by real-time PCR to compare BA and MBA head-to-head. […] These findings support the ability of MBA to stabilize HIF in-vivo leading to the induction of classic target genes and transcription of a tightly regulated protein EPO.

[9] = target: T1, PHD2181-402; experiment: WaterLOGSY 1D NMR binding to PHD2181-402; conditions: 10 mM SCFA, 25 μM PHD2181-402
From the text: Protons attached to C4 were selectively inverted and acted as source of magnetization transfer. […] (G) Protons attached to C2 were selectively inverted.
Measurements were repeated 3 times.
This method enables sensitive and robust detection of binding (dissociation constants as weak as μM to low mM) based on the magnetization transfer between water molecules, proteins, and ligands of interest in close proximity via dipolar proton-proton cross-relaxation (nuclear Overhauser effect, NOE). […] Binding and non-binding ligands can be distinguished in a WaterLOGSY spectrum via their opposite signs in relation to water for their corresponding peaks.
This technique allows for mapping of the ligand pharmacophore by monitoring the response of individual protons to an increase of ROEs contribution to the overall cross relaxation rate.

[10] = calculated from measured IC50 accounting for substrate conversion, n = 4, error: SEM, read-out: True IC50 for PHD2181-402

Q: Which IC50 [1, 10] does the source give for `CCC(CC)C(=O)O` [2-Ethylbutyrate] here?
A: The IC50 was 77 ± 6 mM.

Q: With `CC(O)CC(=O)O` (centres unmarked) [3-Hydroxybutyrate] as the compound, how does the IC50 [1, 10] read?
A: Its IC50 is 14 ± 1 mM.

Q: Which results are given for `COC(=O)CNC(=O)C(=O)OC` [DMOG, dimethyloxalylglycine, reference compound]?
A: IC50 ([1]; 1 μM PHD2181-402, 10 μM 2-OG, 10-minute reaction, n=5-12, error: SEM, read-out: true half maximal inhibitory concentration (IC50) for PHD2181-402): 1.9 ± 0.5 mM; IC50 [2]: 0.00289 to 4 mM

Q: For `O=C(O)CNC(=O)c1c(O)c2ccccc2n(Cc2ccccc2)c1=O` [IOX2, reference compound], which “2-OG levels compared to control” value [3] is on record?
A: The value was “to lesser extent than butyrate”.

Q: What about the “colon tissue 2-OG levels after antibiotics” value [4] of the same compound?
A: The value was “rescued”.

Q: What about the “mRNA expression of HIF-1α targets Bnip3, Bnip3l, Glu1 after antibiotics” value [4] of the same compound?
A: The value was “rescued”.

Q: With `CC(C)(C)OC(=O)c1ccc(-n2[nH]cc(-n3ccnn3)c2=O)nc1` [IOX4, reference compound] as the compound, how does the “HIF1α stabilization over time (immunoblot)” value ([5]; T84 cells) read?
A: The value was “no longer effective at the 72h timepoint”.

Q: What about the “BNIP3 immunoblot over time” value [6] of the same compound?
A: The value was “supported active HIF1α transcription”.

Q: With `O=C(O)CCCS` [MBA, 4-Mercaptobutyrate] as the compound, how does the “HIF1α immunoblot compared with butyrate” value ([5]; T84, equimolar concentration (5 mM)) read?
A: The value was “exceeding the capabilities of butyrate”.

Q: What about the “HIF1α stabilization over time (immunoblot)” value ([5]; T84 cells) of the same compound?
A: Its value is “observed clearly up to 72h”.

Q: And the “dose response of HIF1α accumulation” value ([5]; T84 cells, decreasing concentrations, 6 h)?
A: The value was “can stabilize HIF at the low millimolar range”.

Q: What about the “HIF target gene induction compared to BA” value ([7]; T84, 5 mM) of the same compound?
A: The value was “more potent than BA; also recorded: more prominent induction of HIF target genes compared to BA”.

Q: What about the “induction of HIF target genes BNIP3 and CAIX” value ([7]; T84, 5 mM) of the same compound?
A: The value was “significant induction”.

Q: And the “induction of BNIP3 and CAIX in cells lacking HIF1β” value ([7]; T84 HIF1β shRNA knockdown, 5 mM)?
A: The value was “complete loss of induction”.

Q: What about the “GLUT1 mRNA in colon tissue” value ([8]; IP, BA 73 mg/kg) of the same compound?
A: The value was “significantly increased in colon tissue”.

Q: What about the “GLUT1 mRNA in kidney” value ([8]; IP, BA 73 mg/kg) of the same compound?
A: The value was “induction of GLUT1 in kidney”.

Q: And the “EPO concentration in serum” value ([8]; one IP injection, compared to vehicle, DMOG and BA)?
A: The value was “significantly higher concentration of EPO”.

Q: And the “BNIP3 immunoblot over time” value [6]?
A: The value was “supported active HIF1α transcription”.

Q: What about the “HIF1α immunoblot compared with IOX4” value ([6]; caco-2, 5 mM MBA vs IOX4 (10 μM)) of the same compound?
A: Its value is “at least as much as IOX4”.

Q: And the “HIF1α immunoblot compared with butyrate” value ([6]; caco-2, equimolar concentration (5 mM))?
A: The value was “exceeding the capabilities of butyrate”.

Q: And the “HIF1α relative concentration over time (MSD assay)” value ([6]; caco-2 cell lysates, 5 mM, up to 72h)?
A: Its value is “rapidly stabilized (3h)”.

Q: And the “HIF1α relative concentration (MSD assay)” value ([6]; caco-2 lysates, 5 mM, compared with IOX4)?
A: The value was “exceeded HIF stabilization in caco-2 compared to the potent IOX4 PHD2 inhibitor”.

Q: What does the source list for `CC(=O)O` [acetate, Acetic acid, reference compound]?
A: fold less effective at inhibiting PHD2181-402 than butyrate [1]: ~10 fold; binding to PHD2181-402 by WaterLOGSY [9]: no binding

Q: For `CCC(=O)O` [propionate, propionic acid, reference compound], which “fold less effective at inhibiting PHD2181-402 than butyrate” value [1] is on record?
A: The value was roughly 10 fold.

Q: What about the “binding to PHD2181-402 by WaterLOGSY” value [9] of the same compound?
A: The value was “no binding”.

Q: With `CCCCC(=O)O` [valerate, valeric acid, reference compound] as the compound, how does the “fold less effective at inhibiting PHD2181-402 than butyrate” value [1] read?
A: Its value is roughly 3 fold.

Q: What about the “binding to PHD2181-402 by WaterLOGSY” value [9] of the same compound?
A: The value was “no binding”.
